The conditions of series [1]: rcm bond, DCM, 40.0 °C.
Another series concerns the target T1, Human BACE (Homo sapiens, UniProt P56817).
T1 construct: Recombinant BACE (extracellular domain, expressed in baculovirus and purified using standard methods); made in house
Kind of series: Test 1: Inhibition of Human BACE. The class given is biochemical. The conditions noted are these: test not given; follows Tests 1-4, assumed BACE. On the procedure:
Test 1: Inhibition of Human BACE
Recombinant BACE (extracellular domain, expressed in baculovirus and purified using standard methods) at 6 nM concentration is incubated with the test compound at various concentrations for 1 hour at room temperature in 100 mM acetate buffer, pH 4.5, containing 0.1% CHAPS. Synthetic peptide substrate Mca-Ser-Glu-Val-Asn-Leu-Asp-Ala-Glu-Phe-Lys(DNP) is added to a final concentration of 3 μM and the increase in fluorescence is recorded at excitation of 325 nm and emission at 400 nm in a microplate spectro-fluorimeter for 20 minutes in 1-minute intervals. IC50 values are calculated from percentage of inhibition of BACE-activity as a function of the test compound concentration.

Where two headings read alike, the source gives them in different places.

T1 sequence (P56817 46-457 limits assumed): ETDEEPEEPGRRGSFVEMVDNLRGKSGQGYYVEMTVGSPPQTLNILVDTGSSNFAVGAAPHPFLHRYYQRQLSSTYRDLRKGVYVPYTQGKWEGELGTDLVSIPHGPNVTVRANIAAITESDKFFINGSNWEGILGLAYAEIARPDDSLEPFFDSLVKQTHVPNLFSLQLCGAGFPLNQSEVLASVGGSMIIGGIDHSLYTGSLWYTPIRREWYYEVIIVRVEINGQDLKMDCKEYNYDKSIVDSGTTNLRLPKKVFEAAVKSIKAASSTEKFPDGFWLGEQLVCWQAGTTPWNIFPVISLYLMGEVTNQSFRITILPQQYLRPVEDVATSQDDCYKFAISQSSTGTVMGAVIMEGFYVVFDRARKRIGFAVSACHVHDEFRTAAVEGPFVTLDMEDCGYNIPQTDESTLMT

`COc1ccc2cc1CC=CCN(C(C)=O)c1cc(cc(Cl)n1)C(=O)N[C@H]([C@H]1CN(Cc3cccc(C(C)C)c3)C(=O)O1)C2` came in with a ring closure, yield of all isomers in series [1] (from C=CCc1cc(C[C@H](NC(=O)c2cc(Cl)nc(N(CC=C)C(C)=O)c2)[C@H]2CN(Cc3cccc(C(C)C)c3)C(=O)O2)ccc1OC, Grubbs II (tricyclohexylphosphine[1,3-bis(2,4,6-trimethylphenyl)-4,5-dihydroimidazol-2-ylidene][benzylidene]ruthenium(IV) dichloride), 3.45 mM, 6.0 h) of 77.6%. With `CN(C)C(=O)c1cc2cc(c1)C(=O)N[C@H]([C@H](O)CCl)Cc1cccc(c1)OCC=CCO2`, in series [1] (from C=CCOc1cccc(C[C@H](NC(=O)c2cc(OCC=C)cc(C(=O)N(C)C)c2)[C@H](O)CCl)c1, Grubbs II, 18.9 mM, 1.5 h), the ring closure, yield of all isomers is 70%. In general, IC50 refers to the concentration at which inhibition is half-maximal. As to `Cc1cc2cc(n1)NCCCCc1cccc(c1)C[C@@H]([C@H](O)CNCc1cccc(C(C)C)c1)NC2=O` [Example 11, (S)-4-[(R)-1-Hydroxy-2-(3-isopropyl-benzylamino)-ethyl]-18-methyl-3,15,17-triaza-tricyclo[14.3.1.1*6,10*]henicosa-1(19),6,8,10(21),16(20),17-hexaen-2-one], the IC50 at Human BACE came to 40 nM.

The record behind these values is patent publication US20080132477A1, “Macrocyclic Compounds Useful as Bace Inhibitors” (priority 2005, published 2008).
